Measurements reported in PubChem BioAssay (NCI).
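48-hour exposure; five concentrations; linearly interpolated endpoints. Abbreviation: GI50, concentration required for 50% inhibition of growth. The concentration for full growth arrest is given as TGI.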

What was measured:
Experiment in all cases: growth of human tumour cells (NCI), 48 h
UO-31 renal = tested on: UO-31 renal
NCI-H23 lung = tested on: NCI-H23 lung
U251 CNS = tested on: U251 CNS
SNB-75 CNS = tested on: SNB-75 CNS
DU-145 prostate = tested on: DU-145 prostate
SNB-19 CNS = tested on: SNB-19 CNS
HCT-116 colon = tested on: HCT-116 colon
OVCAR-3 ovarian = tested on: OVCAR-3 ovarian
ACHN renal = tested on: ACHN renal
SK-OV-3 ovarian = tested on: SK-OV-3 ovarian

S=c1[nH]c(=S)c2cc3ccccc3nc2[nH]1
GI50 (UO-31 renal): > 100 µM
TGI (UO-31 renal): > 100 µM
GI50 (NCI-H23 lung): 35 µM
TGI (NCI-H23 lung): > 100 µM
GI50 (U251 CNS): 5.98 µM
TGI (U251 CNS): 41.6 µM
GI50 (SNB-75 CNS): > 100 µM
TGI (SNB-75 CNS): > 100 µM
GI50 (DU-145 prostate): > 100 µM
TGI (DU-145 prostate): > 100 µM
GI50 (SNB-19 CNS): 35.5 µM
TGI (SNB-19 CNS): > 100 µM
GI50 (HCT-116 colon): 69.8 µM
TGI (HCT-116 colon): > 100 µM
GI50 (OVCAR-3 ovarian): 12.9 µM
TGI (OVCAR-3 ovarian): 95.8 µM
GI50 (ACHN renal): > 100 µM
TGI (ACHN renal): > 100 µM
GI50 (SK-OV-3 ovarian): > 100 µM
TGI (SK-OV-3 ovarian): > 100 µM

CN(C)C1CCN(C(=O)c2ccc(NC(=O)Nc3ccc(-c4nc(N5CCOCC5)c5cccn5n4)cc3)cc2)CC1
GI50 (UO-31 renal): 1.15 µM
TGI (UO-31 renal): 10.1 µM
GI50 (NCI-H23 lung): 0.102 µM
TGI (NCI-H23 lung): 17.7 µM
GI50 (U251 CNS): 0.0599 µM
TGI (U251 CNS): 14.4 µM
GI50 (SNB-75 CNS): 0.0138 µM
TGI (SNB-75 CNS): 0.0711 µM
GI50 (DU-145 prostate): 0.0335 µM
TGI (DU-145 prostate): 12.6 µM
GI50 (SNB-19 CNS): 0.0403 µM
TGI (SNB-19 CNS): 6.22 µM
GI50 (HCT-116 colon): 0.0705 µM
TGI (HCT-116 colon): 20 µM
GI50 (OVCAR-3 ovarian): 0.0412 µM
TGI (OVCAR-3 ovarian): 1.12 µM
GI50 (ACHN renal): 1.05 µM
TGI (ACHN renal): 13 µM
GI50 (SK-OV-3 ovarian): 0.0377 µM
TGI (SK-OV-3 ovarian): 0.252 µM

CC1CC2CCCC(O)=C2C(=O)O1 (stereo not given)
TGI (UO-31 renal): > 100 µM
TGI (NCI-H23 lung): > 100 µM
TGI (U251 CNS): > 100 µM
TGI (SNB-75 CNS): > 100 µM
TGI (DU-145 prostate): > 100 µM
TGI (SNB-19 CNS): > 64.8 µM
TGI (HCT-116 colon): > 100 µM
TGI (OVCAR-3 ovarian): > 100 µM
TGI (ACHN renal): > 100 µM
TGI (SK-OV-3 ovarian): > 100 µM

COc1ccc2nc3ccccc3c(NCc3ccc(F)cc3)c2c1
GI50 (UO-31 renal): 0.962 µM
TGI (UO-31 renal): 3.96 µM
GI50 (NCI-H23 lung): 1.89 µM
TGI (NCI-H23 lung): 8.46 µM
GI50 (U251 CNS): 1.94 µM
TGI (U251 CNS): 7.82 µM
GI50 (SNB-75 CNS): 2.46 µM
TGI (SNB-75 CNS): 9.2 µM
GI50 (DU-145 prostate): 2.09 µM
TGI (DU-145 prostate): 7.04 µM
GI50 (SNB-19 CNS): 2.04 µM
TGI (SNB-19 CNS): 7.62 µM
GI50 (HCT-116 colon): 1.75 µM
TGI (HCT-116 colon): 6.5 µM
GI50 (OVCAR-3 ovarian): 2.25 µM
TGI (OVCAR-3 ovarian): 7.81 µM
GI50 (ACHN renal): 1.82 µM
TGI (ACHN renal): 6.68 µM
GI50 (SK-OV-3 ovarian): 2.79 µM
TGI (SK-OV-3 ovarian): 10.4 µM

NC(N)=N/N=C/c1c(Cl)cccc1Cl
GI50 (UO-31 renal): 16.5 µM
TGI (UO-31 renal): 64.7 µM
GI50 (NCI-H23 lung): 36.5 µM
TGI (NCI-H23 lung): > 100 µM
GI50 (U251 CNS): 16.3 µM
TGI (U251 CNS): 33.7 µM
GI50 (SNB-75 CNS): 16.7 µM
TGI (SNB-75 CNS): 54.1 µM
GI50 (DU-145 prostate): 23.1 µM
TGI (DU-145 prostate): > 100 µM
GI50 (SNB-19 CNS): 37.7 µM
TGI (SNB-19 CNS): > 100 µM
GI50 (HCT-116 colon): 17.2 µM
TGI (HCT-116 colon): 36.1 µM
GI50 (OVCAR-3 ovarian): 28.1 µM
TGI (OVCAR-3 ovarian): > 100 µM
GI50 (ACHN renal): 25.4 µM
TGI (ACHN renal): > 100 µM
GI50 (SK-OV-3 ovarian): 41.6 µM
TGI (SK-OV-3 ovarian): > 100 µM

CCn1c(O)c(/C=N/NC(=O)C(C)c2ccc(CC(C)C)cc2)sc1=S (stereo not given)
GI50 (UO-31 renal): 0.483 µM
TGI (UO-31 renal): 16.8 µM
GI50 (NCI-H23 lung): 0.673 µM
TGI (NCI-H23 lung): > 41.1 µM
GI50 (U251 CNS): 0.399 µM
TGI (U251 CNS): > 38 µM
GI50 (SNB-75 CNS): 0.241 µM
TGI (SNB-75 CNS): 0.757 µM
GI50 (DU-145 prostate): 0.365 µM
TGI (DU-145 prostate): > 22.1 µM
GI50 (SNB-19 CNS): 0.433 µM
TGI (SNB-19 CNS): > 41.8 µM
GI50 (HCT-116 colon): 0.397 µM
TGI (HCT-116 colon): > 36.9 µM
GI50 (OVCAR-3 ovarian): 0.272 µM
TGI (OVCAR-3 ovarian): 3.97 µM
GI50 (ACHN renal): 0.813 µM
TGI (ACHN renal): > 38.8 µM
GI50 (SK-OV-3 ovarian): 0.666 µM
TGI (SK-OV-3 ovarian): > 100 µM

C=CCC1(c2ccc(OC)cc2)C=CC(=O)CC1 (stereo not given)
TGI (UO-31 renal): > 100 µM
TGI (NCI-H23 lung): > 100 µM
TGI (U251 CNS): > 100 µM
TGI (SNB-75 CNS): > 100 µM
TGI (DU-145 prostate): > 100 µM
TGI (SNB-19 CNS): > 100 µM
TGI (HCT-116 colon): > 100 µM
TGI (OVCAR-3 ovarian): > 100 µM
TGI (ACHN renal): > 100 µM
TGI (SK-OV-3 ovarian): > 100 µM
